In patent publication US4225619A, “Substituted fluoracylresorcinols” (Boehringer Ingelheim GmBH, priority 1976, dated 1980):
≈ marks a conversion by molar mass, not a printed value.

test system: Corynebacterium acnes; assay: Serial dilution test for Corynebacterium acnes; format: cell-based; details: Cutibacterium acnes, 37° C. for 48 hours, read-out: MIC, S.D.T., Corynebacterium acnes
Method: Serial dilution test for Corynebacterium acnes and Pityrosporum ovale Nutrient medium
For Corynebacterium acnes: thioglycolate-broth for Pityrosporum ovale: Littmann's broth, 5 ml per tube.
Suspension of microorganisms in 0.9% sodium chloride solution, standardized using a photometer according to Eppendorf by means of a suspension for comparison consisting of barium sulfate, for Corynebacterium acnes in a dilution of 1:100, for Pityrosporum ovale in an undiluted state. 0.1 ml of the suspensions was used per test tube. Dimethyl sulfoxide served as a solvent for the substances.
The suspension with Corynebacteria acnes was incubated at 37° C. for 48 hours, the suspension of Pityrosporum ovale at 27° C. for 7 days. The reading was effected by macroscopic evaluation of the growth of microorganisms and registration of the minimal inhibitory concentration.

Compound | MIC [µg/mL]
CC1CCC(c2c(O)ccc(C(=O)C(F)(F)F)c2O)CC1 (centres unmarked) [H, 2,4-Dihydroxy-3-(4'-methyl)-cyclohexyl-trifluoro-acetophenone] | 1.25 (≈ 4.14 µM)
CC(C)Cc1c(O)ccc(C(=O)C(F)(F)F)c1O [F, 2,4-Dihydroxy-3-iso-butyl-trifluoroacetophenone] | 0.31 (≈ 1.18 µM)
COc1ccc(C(=O)C(F)(F)F)c(OC)c1 [D, 2,4-Dimethoxy-trifluoroacetophenone, reference compound] | > 80
CCc1cc(C(=O)C(F)(F)F)c(O)cc1O [B, 5-Ethyl-2,4-dihydroxy-trifluoroacetophenone, reference compound] | 20 (≈ 85.4 µM)
CC(C)c1c(O)ccc(C(=O)C(F)(F)F)c1O [P, 2,4-Dihydroxy-3-isopropyl-trifluoroacetophenone] | 5 (≈ 20.1 µM)
CCc1c(O)ccc(C(=O)C(F)(F)F)c1O [C, 3-Ethyl-2,4-dihydroxy-trifluoroacetophenone, reference compound] | 1.25 (≈ 5.34 µM)
O=C(c1ccc(O)cc1O)C(F)(F)F [A, 2,4-Dihydroxy-trifluoroacetophenone, reference compound] | 80 (≈ 388 µM)

same assay, conditions: reduced growth at this concentration

Compound | Concentration with reduced growth (value in brackets), S.D.T., Corynebacterium acnes [µg/mL]
CC(C)c1c(O)ccc(C(=O)C(F)(F)F)c1O [P, 2,4-Dihydroxy-3-isopropyl-trifluoroacetophenone] | 1.25
